Values of other authors as cited in patent US12653891B2, “Stable glucocorticoid formulation” (AVM Biotechnology, LLC, priority 2018, dated 2026).
Counter-ions that a name gives are not always drawn. Like-named read-outs stand apart in the source and are kept apart here.

Assays:
[1] = not given; remark: listed apart in the source

Compound	Solubility in alcohol (alcohol)	Solubility in chloroform and ether (chloroform and ether)	Solubility in dioxan (dioxan)	Threshold (EMA/CHMP/334655/2013) ([1]; 5 years up to 17 years and adults)	Threshold (EMA/CHMP/334655/2013) ([1]; 29 days up to 4 years)	Amount that can accumulate and cause lactic acidosis, CNS depression, coma, hypoglycemia, seizures, hemolysis ([1]; IV)	Threshold (EMA/CHMP/334655/2013) ([1]; neonates up to 28 days)
C[C@@H]1C[C@H]2[C@@H]3CCC4=CC(=O)C=C[C@]4(C)[C@@]3(F)[C@@H](O)C[C@]2(C)[C@@]1(O)C(=O)COP(=O)(O)O [Dexamethasone phosphate (as sodium), 9-fluoro-11b,17,21-trihydroxy-16a-methylpregna-1,4-diene-3,20-dione 21-(dihydrogen phosphate) Disodium Salt]	slightly soluble	practically insoluble	very slightly soluble	–	–	–	–
CC(O)CO (stereo not shown) [Propylene glycol]	–	–	–	500 mg/kg	50 mg/kg	≥ 3 g/day	1 mg/kg
